Reference: US8536226B2, “Methods for the treatment of dermatological disorders” (Janssen Pharmaceutica, NV, priority 2008, dated 2013)
Values joined by “and” are separate entries in the source; they are usually repeats but may differ in a detail not shown here. Equal entries are not always repeated. Where two headings read alike, the source gives them in different places.

Experiments:
[1] = system: human sebocytes; assay: cells; type: cell-based; conditions: read-out: % Inhibition (Nile Red Fluorescence)
[2] = target: T1, Melanocortin-5 (MC-5) receptor (Homo sapiens, UniProt P33032); assay: MC-5 receptor binding assay, MDS-PANLABS (human recombinant HEK-293 cells, [125]NDP-α-MSH); parameters: host or cells: HEK-293 cells
T1 sequence (P33032 whole entry): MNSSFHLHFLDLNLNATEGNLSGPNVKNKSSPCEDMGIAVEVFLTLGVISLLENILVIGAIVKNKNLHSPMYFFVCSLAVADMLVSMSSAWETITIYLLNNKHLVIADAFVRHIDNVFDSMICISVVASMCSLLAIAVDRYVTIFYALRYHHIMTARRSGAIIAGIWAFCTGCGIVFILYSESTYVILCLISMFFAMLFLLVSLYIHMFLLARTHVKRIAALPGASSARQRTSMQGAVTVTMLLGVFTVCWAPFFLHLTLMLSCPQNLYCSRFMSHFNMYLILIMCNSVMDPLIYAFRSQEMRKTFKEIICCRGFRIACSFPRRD
Method: (§1) Binding to the MC-5 receptor was measured in two assays, performed by CEREP and MDS-PANLABS.
The assay run by MDS-PANLABS (Catalog Ref #251400) used human recombinant HEK-293 cells, ^[125]NDP-α-MSH as the ligand (0.035 nM), various concentrations of the compound of formula (I), incubating at 37° C. for 60 min, and detecting binding via scintillation counting. Specific ligand binding to the receptors was defined as the difference between the total binding and the nonspecific binding determined in the presence of an excess (3 μM) of unlabelled NDP-α-MSH. IC50 values were determined by a non-linear, least squares regression analysis using Data Analysis Toolbox. Inhibition constants (Ki) were calculated using the equation of Cheng and Prusoff (Biochem. Pharmacol. 22:3099, 1973) using the observed IC50 of the tested compound, the concentration of radioligand employed in the assay, and the historical values for the Kd of the ligand (obtained experimentally at MDS Pharma Services).
The compound of formula (I) was tested for binding to the MC-5 receptor in both the CEREP and MDS-PANLABS assays with results as listed in Table 3 below.

[3] = target: T1, Melanocortin-5 (MC-5) receptor; assay: MC-5 receptor binding assay, CEREP (human recombinant CHO cells, [125]NDP-α-MSH)
Method: as §1
The assay run by CEREP (Catalog Ref. #889-5h) used human recombinant CHO cells, ^[125]NDP-α-MSH as the ligand (0.05 nM concentration), NDP-α-MSH as the non-specific (1 μM), incubating at 37° C. for 60 min and detecting binding via scintillation counting. The specific ligand binding to the receptors was defined as the difference between the total binding and the nonspecific binding determined in the presence of an excess of unlabelled ligand. The IC50 values (the concentration causing a half-maximal inhibition of control specific binding) and Hill coefficients were determined by non-linear regression analysis of the competition curves generated with mean replicate values using Hill equation curve fitting (Y=D+[(A−D)/(1+(C/C50)^nH)], where Y=specific binding, D=minimum specific binding, A=maximum specific binding, C=compound concentration, C50=IC50, and nH=slope factor). This analysis was performed using software developed at CEREP (Hill software) and validated by comparison with data generated by the commercial software SigmaPlot® 4.0 for Windows® (© 1997 by SPSS Inc.). The inhibition constants (Ki) were calculated using the Cheng Prusoff equation (Ki=IC50/(1+(L/KD)), where L=concentration of radioligand in the assay, and KD=affinity of the radioligand for the receptor). […]

[4] = system: human sebocytes; assay: cells; type: cell-based
[5] = system: isolated human adipocytes; conditions: concentrations as high as 1 μM; cited from earlier work
[6] = system: rabbit adipocytes; conditions: read-out: EC50, lipolytic activity; cited from earlier work
[7] = system: isolated non-human primate adipocytes; conditions: concentrations as high as 1 μM; cited from earlier work
[8] = system: rat adipocytes; conditions: read-out: EC50, lipolytic activity; cited from earlier work

COc1ccccc1N/C(=N\C(=S)Nc1ccccc1)c1ccccc1OC [Compound (I), 1-[(2-methoxy-phenyl)-(2-methoxy-phenylamino)-methylene]-3-phenyl-thiourea]
inhibition at 0.4 µM [1]: 24%
inhibition at 0.6 µM [1]: 25%
inhibition at 0.8 µM [1]: 39%
inhibition at 1 µM [1]: 45%
inhibition at 1.2 µM [1]: 43%
IC50 ([2]; MDS-PANLABS MEAN ± SD): 2350 ± 1670 nM
Ki ([2]; MDS-PANLABS MEAN ± SD): 2200 ± 1560 nM
Ki ([2]; MDS-PANLABS assay, Cheng Prusoff, single runs): 1100 nM and 3310 nM
IC50 ([2]; MDS-PANLABS assay, HEK-293 cells, 0.035 nM radioligand, single runs): 1170 nM and 3530 nM
IC50 ([3]; CHO cells, 0.05 nM radioligand): 57000 nM
Ki ([3]; Cheng Prusoff): 53000 nM
inhibition at 0.8 µM ([4]; read-out: % Inhibition of Sebaceous Lipid Synthesis, cholesterol esters, Study 1, @ 0.8 μM): 30%
inhibition at 1.2 µM ([4]; read-out: % Inhibition of Sebaceous Lipid Synthesis, cholesterol esters, Study 1, @ 1.2 μM): 35%
inhibition at 1.6 µM ([4]; read-out: % Inhibition of Sebaceous Lipid Synthesis, cholesterol esters, Study 1, @ 1.6 μM): 45%
inhibition at 3.2 µM ([4]; read-out: % Inhibition of Sebaceous Lipid Synthesis, cholesterol esters, Study 1, @ 3.2 μM): 60%
inhibition at 0.4 µM ([4]; read-out: % Inhibition of Sebaceous Lipid Synthesis, cholesterol esters, Study 2, @ 0.4 μM): 44%
inhibition at 0.8 µM ([4]; read-out: % Inhibition of Sebaceous Lipid Synthesis, cholesterol esters, Study 2, @ 0.8 μM): 64%
inhibition at 1.2 µM ([4]; read-out: % Inhibition of Sebaceous Lipid Synthesis, cholesterol esters, Study 2, @ 1.2 μM): 72%
inhibition at 1.6 µM ([4]; read-out: % Inhibition of Sebaceous Lipid Synthesis, cholesterol esters, Study 2, @ 1.6 μM): 74%
inhibition at 3.2 µM ([4]; read-out: % Inhibition of Sebaceous Lipid Synthesis, cholesterol esters, Study 2, @ 3.2 μM): 86%
inhibition at 0.8 µM ([4]; read-out: % Inhibition of Sebaceous Lipid Synthesis, squalene, Study 1, @ 0.8 μM): 50%
inhibition at 1.2 µM ([4]; read-out: % Inhibition of Sebaceous Lipid Synthesis, squalene, Study 1, @ 1.2 μM): 55%
inhibition at 1.6 µM ([4]; read-out: % Inhibition of Sebaceous Lipid Synthesis, squalene, Study 1, @ 1.6 μM): 62%
inhibition at 3.2 µM ([4]; read-out: % Inhibition of Sebaceous Lipid Synthesis, squalene, Study 1, @ 3.2 μM): 76%
inhibition at 0.4 µM ([4]; read-out: % Inhibition of Sebaceous Lipid Synthesis, squalene, Study 2, @ 0.4 μM): 64%
inhibition at 0.8 µM ([4]; read-out: % Inhibition of Sebaceous Lipid Synthesis, squalene, Study 2, @ 0.8 μM): 88%
inhibition at 1.2 µM ([4]; read-out: % Inhibition of Sebaceous Lipid Synthesis, squalene, Study 2, @ 1.2 μM): 92%
inhibition at 1.6 µM ([4]; read-out: % Inhibition of Sebaceous Lipid Synthesis, squalene, Study 2, @ 1.6 μM): 94%
inhibition at 3.2 µM ([4]; read-out: % Inhibition of Sebaceous Lipid Synthesis, squalene, Study 2, @ 3.2 μM): 96%
inhibition at 0.8 µM ([4]; read-out: % Inhibition of Sebaceous Lipid Synthesis, triglycerides, Study 1, @ 0.8 μM): 0%
inhibition at 1.2 µM ([4]; read-out: % Inhibition of Sebaceous Lipid Synthesis, triglycerides, Study 1, @ 1.2 μM): 10%
inhibition at 1.6 µM ([4]; read-out: % Inhibition of Sebaceous Lipid Synthesis, triglycerides, Study 1, @ 1.6 μM): 8%
inhibition at 3.2 µM ([4]; read-out: % Inhibition of Sebaceous Lipid Synthesis, triglycerides, Study 1, @ 3.2 μM): 2%
inhibition at 0.4 µM ([4]; read-out: % Inhibition of Sebaceous Lipid Synthesis, triglycerides, Study 2, @ 0.4 μM): 22%
inhibition at 0.8 µM ([4]; read-out: % Inhibition of Sebaceous Lipid Synthesis, triglycerides, Study 2, @ 0.8 μM): 20%
inhibition at 1.2 µM ([4]; read-out: % Inhibition of Sebaceous Lipid Synthesis, triglycerides, Study 2, @ 1.2 μM): 16%
inhibition at 1.6 µM ([4]; read-out: % Inhibition of Sebaceous Lipid Synthesis, triglycerides, Study 2, @ 1.6 μM): 14%
inhibition at 3.2 µM ([4]; read-out: % Inhibition of Sebaceous Lipid Synthesis, triglycerides, Study 2, @ 3.2 μM): 6%

ACTH: melanocortin neuropeptide arising from pro-opiomelanocortin (POMC) (SYSMEHFRWGKPVGKKRRPVKVYPNGAEDESAEAFPLEF; Corticotropin; UniProt P01189 138-176, looked up)
effect on lipolysis [5]: very little effect
EC50 [6]: 16.4 nM
effect on lipolysis [7]: very little effect
EC50 [8]: 1.34 nM

αMSH
EC50 [6]: 3.7 nM
